Results as given in patent US20250009742A1 (priority 2021, published 2025).

Tests used:
[1] = test system: intracellular HBV DNA; experiment: Real-time PCR for intracellular HBV DNA in HepAD38 cells; assay type: cell-based; settings: Hepatitis B virus, HePAD38, 65 h, 65 hours treatment
[2] = biological target: Protein (Hepatitis B virus genotype D subtype ayw, UniProt P03146); experiment: Protein inhibition rate / EC50 (Table 1, no method described); assay type: biochemical
[3] = Cell viability assay (EZ-Cytox), cytotoxicity; assay type: cell-based; settings: human, HepAD38 cells; for viability at 65 h, 100 µM: read-out: Cytotoxicity % Livability (@100 μM)
Description: HepAD38 cells were cultured for 2 days in Dulbecco's Modified Eagle's medium (Welgene, LM001-05) supplemented with 10% FBS without tetracycline. […] After 65 hours of treatment, viability was measured using EZ-Cytox cell viability assay kit (Daeil Lab Service) according to the manufacturer's instructions. The absorbance was measured at 450 nm using a spectrophotometer (Spark, Tecan).

Chain of Protein (P03146 whole entry): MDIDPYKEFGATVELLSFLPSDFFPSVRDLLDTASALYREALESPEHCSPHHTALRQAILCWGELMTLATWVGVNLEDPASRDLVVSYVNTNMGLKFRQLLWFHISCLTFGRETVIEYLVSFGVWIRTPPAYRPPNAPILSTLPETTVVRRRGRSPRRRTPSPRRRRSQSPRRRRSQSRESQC

Row | Structure (SMILES) | IC50 [1] | EC50 [2] | inhibition at 30 µM [2] | CC50 at 65 h [3] | viability at 65 h, 100 µM [3] | inhibition at 3 µM ([2]; @3 μM (footnote *))
1 | COc1ccc(N(Cc2n[nH]c(C)c2C)C(=O)Nc2ccc(F)c(Cl)c2)cn1 [Example 57, 3-(3-chloro-4-fluorophenyl)-1-((4,5-dimethyl-1H-pyrazol-3-yl)methyl)-1-(6-methoxypyridin-3-yl)urea] | 0.023 µM | 2 µM | 96.2% | > 100 µM | 93.2% | –
2 | Cn1cc(N(Cc2n[nH]c3c2CCC3)C(=O)Nc2ccc(F)c(Cl)c2)ccc1=O [Example 65, 3-(3-chloro-4-fluorophenyl)-1-(1-methyl-6-oxo-1,6-dihydropyridin-3-yl)-1-((1,4,5,6-tetrahydrocyclopenta[c]pyrazol-3-yl)methyl)urea] | > 1.1 µM | > 30 µM | 53.5% | > 100 µM | 112% | –
3 | COc1ccc(N(Cc2n[nH]c3c2COCC3)C(=O)Nc2ccc(F)c(Cl)c2)cc1 [Example 38, 3-(3-chloro-4-fluorophenyl)-1-(4-methoxyphenyl)-1-((1,4,6,7-tetrahydropyrano[4,3-c]pyrazol-3-yl)methyl)urea] | 0.018 µM | 1.6 µM | 80% | > 100 µM | 104% | –
4 | O=C(Nc1ccc(F)c(Cl)c1)N(Cc1n[nH]c2c1CCC2)c1ccon1 [Example 134, 3-(3-chloro-4-fluorophenyl)-1-(isoxazol-3-yl)-1-((1,4,5,6-tetrahydrocyclopenta[c]pyrazol-3-yl)methyl)urea] | 0.069 µM | 3.5 µM | 84.5% | 70.3 µM | 6.5% | –
5 | COc1ccc(N(Cc2n[nH]c3c2CC(C(F)(F)F)CC3)C(=O)Nc2ccc(F)c(Cl)c2)cn1 (centres unmarked) [Example 62, 3-(3-chloro-4-fluorophenyl)-1-(6-methoxypyridin-3-yl)-1-((5-(trifluoromethyl)-4,5,6,7-tetrahydro-1H-indazol-3-yl)methyl)urea] | 0.2 µM | 6.9 µM | 100% | 86.7 µM | 6.5% | –
6 | COc1ccc(N(Cc2n[nH]c3c2CC(F)(F)CC3)C(=O)Nc2ccc(F)c(Cl)c2)cn1 [Example 40, 3-(3-chloro-4-fluorophenyl)-1-((5,5-difluoro-4,5,6,7-tetrahydro-1H-indazol-3-yl)methyl)-1-(6-methoxypyridin-3-yl)urea] | 0.016 µM | 3.8 µM | 99.5% | 82.5 µM | 4.6% | –
7 | O=C(O)c1ccc(N(Cc2n[nH]c3c2CCCC3)C(=O)Nc2ccc(F)c(Cl)c2)cc1 [Example 131, 4-(3-(3-chloro-4-fluorophenyl)-1-((4,5,6,7-tetrahydro-1H-indazol-3-yl)methyl)ureido)benzoic acid] | > 1.1 µM | 3.8 µM | 94.7% | > 100 µM | 100% | –
8 | COc1ccc(N(Cc2n[nH]c3c2CCC3)C(=O)Nc2ccc(F)c(Cl)c2)cc1 [Example 46, 3-(3-chloro-4-fluorophenyl)-1-(4-methoxyphenyl)-1-((1,4,5,6-tetrahydrocyclopenta[c]pyrazol-3-yl)methyl)urea] | 0.0094 µM | 4.3 µM | 92.8% | > 100 µM | 100% | –
9 | O=C(Nc1ccc(F)c(Cl)c1)N(Cc1n[nH]c2c1CCCC2)c1ccc(=O)[nH]c1 [Example 14, 3-(3-chloro-4-fluorophenyl)-1-(6-oxo-1,6-dihydropyridin-3-yl)-1-((4,5,6,7-tetrahydro-1H-indazol-3-yl)methyl)urea] | 0.11 µM | 7.3 µM | 14% | > 100 µM | 95.4% | –
10 | COc1ccc(N(Cc2n[nH]c3c2CS(=O)(=O)CC3)C(=O)Nc2ccc(F)c(Cl)c2)cn1 [Example 49, 3-(3-chloro-4-fluorophenyl)-1-((5,5-dioxido-1,4,6,7-tetrahydrothiopyrano[4,3-c]pyrazol-3-yl)methyl)-1-(6-methoxypyridin-3-yl)urea] | > 1.1 µM | – | 72% | > 100 µM | – | –
11 | COc1ccc(N(Cc2n[nH]c3c2CC(O)CC3)C(=O)Nc2ccc(F)c(Cl)c2)cn1 (centres unmarked) [Example 48, 3-(3-chloro-4-fluorophenyl)-1-((5-hydroxy-4,5,6,7-tetrahydro-1H-indazol-3-yl)methyl)-1-(6-methoxypyridin-3-yl)urea] | 1.1 µM | 6.4 µM | 90% | > 100 µM | – | –
12 | COc1ccc(N(Cc2n[nH]c3c2CCCC3)C(=O)Nc2ccc(F)c(Cl)c2)cn1 [Example 42, 3-(3-chloro-4-fluorophenyl)-1-(6-methoxypyridin-3-yl)-1-((4,5,6,7-tetrahydro-1H-indazol-3-yl)methyl)urea] | 0.037 µM | 4.3 µM | – | > 100 µM | 99.5% | 13%
13 | COc1ccc(N(Cc2cc(C(C)C)[nH]n2)C(=O)Nc2ccc(F)c(Cl)c2)cn1 [Example 58, 3-(3-chloro-4-fluorophenyl)-1-((5-isopropyl-1H-pyrazol-3-yl)methyl)-1-(6-methoxypyridin-3-yl)urea] | 0.16 µM | 5 µM | 93.1% | > 100 µM | 92.7% | –
14 | COc1ccc(N(Cc2n[nH]c3c2CN(C)CC3)C(=O)Nc2ccc(F)c(Cl)c2)cc1 [Example 37, 3-(3-chloro-4-fluorophenyl)-1-(4-methoxyphenyl)-1-((5-methyl-4,5,6,7-tetrahydro-1H-pyrazolo[4,3-c]pyridin-3-yl)methyl)urea] | > 1.1 µM | – | 28.3% | – | 22.4% | –
15 | O=C(Nc1ccc(F)c(Cl)c1)N(Cc1n[nH]c2c1CCCC2)c1nncs1 [Example 133, 3-(3-chloro-4-fluorophenyl)-1-((4,5,6,7-tetrahydro-1H-indazol-3-yl)methyl)-1-(1,3,4-thiadiazol-2-yl)urea] | 0.11 µM | – | 5% | 74.2 µM | 4.3% | –
16 | COc1ccc(N(Cc2n[nH]c3c2CC(CO)CC3)C(=O)Nc2ccc(F)c(Cl)c2)cn1 (centres unmarked) [Example 44, 3-(3-chloro-4-fluorophenyl)-1-((5-(hydroxymethyl)-4,5,6,7-tetrahydro-1H-indazol-3-yl)methyl)-1-(6-methoxypyridin-3-yl)urea] | > 1.1 µM | – | 58% | > 100 µM | 100% | –
17 | COc1cc(N(Cc2n[nH]c3c2CCCC3)C(=O)Nc2ccc(F)c(Cl)c2)ccn1 [Example 54, 3-(3-chloro-4-fluorophenyl)-1-(2-methoxypyridin-4-yl)-1-((4,5,6,7-tetrahydro-1H-indazol-3-yl)methyl)urea] | 0.013 µM | 3.5 µM | 84% | 40.6 µM | 17.4% | –
18 | COc1ccc(N(Cc2n[nH]c3ccccc23)C(=O)Nc2ccc(F)c(Cl)c2)cn1 [Example 43, 1-((1H-indazol-3-yl)methyl)-3-(3-chloro-4-fluorophenyl)-1-(6-methoxypyridin-3-yl)urea] | 0.043 µM | 6.06 µM | 96.7% | > 100 µM | 92% | –
